From patent US20250122225A1, “MASP-2 INHIBITORS AND METHODS OF USE” (Omeros Corporation, priority 2023, published 2025)
Counter-ions that a name gives are not always drawn.

How the values were obtained:
Format in all cases: biochemical
[1] = test system: Lectin Pathway Activation in human serum; test: Lectin Pathway Activation (LPA) assay in human serum, mannan-coated ELISA plate, C4c detection; conditions: 1% human serum, read-out: LPA Functional Activity (IC50)
Experimental: Lectin Pathway Activation (LPA) Assay in Human Serum Treated with Compounds
A microtiter ELISA plate was coated with mannan (1 mg/ml) from Saccharomyces cerevisiae (Sigma-Aldrich®, M7504) overnight at 4° C. in coating buffer [33.3 mM Na2CO3, 166.67 mM NaHCO3]. The plate was blocked with 5% bovine serum albumin (BSA) (Sigma-Aldrich®, A3294) in 1×PBST [Phosphate Buffered Saline Solution (1.06 mM KH2PO4, 155.2 mM NaCl, 2.97 mM Na2HPO4^−·7H2O, pH 7.4), 0.05% Tween-20] shaking for 2 hours at room temperature. 1% human serum was incubated with serial dilutions of small compounds in 1× LPA+ Buffer [20 mM Hepes, pH 7.4, 140 mM NaCl, 2 mM MgCl2 (6H2O)] and incubated for 5 minutes at room temperature. 40 μL of this mixture was then added to the plate, and the plate was incubated at room temperature for 55 mins. Next, the reaction was stopped by adding 20 μL of EDTA Stop Solution [20 mM Hepes, pH7.4, 140 mM NaCl, 150 mM EDTA] to the plate. The plate was then washed 10× in wash buffer 1×PBST; 40 μL of Rabbit Anti Human C4c Antibody [Dako®, Q0369] diluted 1:20000 in wash buffer was added; and the plate was incubated shaking at room temperature for 30 minutes. The plate was washed [5× times]; 40 μL of Goat Anti-rabbit Antibody-HRP Conjugate [Southern Biotech®, 4050-05] diluted 1:10000 in wash buffer was added; and the plate was incubated shaking at room temperature for 30 minutes. After that, the plate was washed five times; 40 µL/well of Amplex® UltraRed Substrate Solution [1× LPA Buffer, 10 mM Amplex® UltraRed Stock Solution [Thermo Fisher Sci.®, A36006], 3% stabilized hydrogen peroxide [Sigma Aldrich®, 216763] was added; the plate was incubated at room temperature for 16 minutes; the reaction was stopped by adding 8 µL/well of Amplex® UltraRed Stop Solution [Thermo Fisher Sci.®, A33855] in 100% EtOH. Finally, the plate was read for fluorescence at Ex: 550 nm, Em: 580 nm on the i3x Microplate Reader.

human α-thrombin = target: T1, human α-thrombin (Homo sapiens, UniProt P00734); test: Enzymatic assay for thrombin (fluorogenic peptide substrate Boc-VPR-AMC)
T1 construct: enzyme (human α-thrombin (BioPharm® Lab.)) in assay buffer; purchased BioPharm® Lab
How it was run: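 Assay conditions kept the reaction linear in time, enzyme and substrate, so IC50 approximated Ki apart from tight- or slow-binding cases. Boc-VPR-AMC cleavage by human α-thrombin proceeded 20 min at room temperature in Hepes pH 7.4/NaCl/Tween 20 buffer, then was acid-quenched and read by fluorescence.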

MASP-2 (CCP1-CCP2-SP) = target: T2, MASP-2 (CCP1-CCP2-SP) (Homo sapiens, UniProt O00187); test: Enzymatic assay for MASP-2 inhibitory activity (fluorogenic substrate)
T2 construct: 15 μL of Enzyme MASP-2 (CCP1-CCP2-SP) in Assay Buffer
How it was run: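 Fluorescence was normalized between no-enzyme and DMSO-only controls to derive % activity, with IC50 taken as equivalent to Ki except for tight-binding inhibitors. Reactions ran 20 min at room temperature in HEPES pH 7.4/NaCl/Tween 20 buffer, using the C2-derived fluorogenic substrate, before acetic acid stop.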

T2 sequence (O00187 445-686 limits assumed): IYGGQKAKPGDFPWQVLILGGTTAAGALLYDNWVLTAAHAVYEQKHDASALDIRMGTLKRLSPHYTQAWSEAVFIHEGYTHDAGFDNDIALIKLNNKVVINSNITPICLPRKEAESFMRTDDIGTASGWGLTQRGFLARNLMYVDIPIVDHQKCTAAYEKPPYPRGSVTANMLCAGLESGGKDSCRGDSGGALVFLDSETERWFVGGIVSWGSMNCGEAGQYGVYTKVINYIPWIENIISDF
T2 sequence (O00187 287-444 partner limits assumed): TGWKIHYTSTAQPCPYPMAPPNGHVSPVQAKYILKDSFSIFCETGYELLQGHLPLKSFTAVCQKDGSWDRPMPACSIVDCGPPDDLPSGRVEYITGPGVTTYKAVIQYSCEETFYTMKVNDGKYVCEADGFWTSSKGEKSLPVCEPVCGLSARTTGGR

Structure (SMILES)	IC50 [1] [nM]	Ki (human α-thrombin) [nM]	Ki (MASP-2 (CCP1-CCP2-SP)) [nM]
COc1cc(C)cc(CNc2ncc3n(c2=O)[C@H](C(=O)NCc2cc4cnccc4[nH]2)CC3)c1 [Compound 48, (S)-N-((1H-pyrrolo[3,2-c]pyridin-2-yl)methyl)-3-((3-methoxy-5-methylbenzyl)amino)-4-oxo-4,6,7,8-tetrahydropyrrolo[1,2-a]pyrazine-6-carboxamide]	< 50	< 500	< 500
Cc1cc(F)cc(CNc2ncc3n(c2=O)[C@H](C(=O)NCc2ccc(N)nc2C)CC3)c1 [Compound 69, (S)-N-((6-amino-2-methylpyridin-3-yl)methyl)-3-((3-fluoro-5-methylbenzyl)amino)-4-oxo-4,6,7,8-tetrahydropyrrolo[1,2-a]pyrazine-6-carboxamide]	< 50	< 500	< 500
Cc1cc(F)cc(CNc2ncc3n(c2=O)[C@H](C(=O)NCc2cc4cnc(C)cc4[nH]2)CC3)c1 [Compound 71, (S)-3-((3-fluoro-5-methylbenzyl)amino)-N-((6-methyl-1H-pyrrolo[3,2-c]pyridin-2-yl)methyl)-4-oxo-4,6,7,8-tetrahydropyrrolo[1,2-a]pyrazine-6-carboxamide]	< 50	10000 to 25000	< 500
Cc1cc(C)cc([C@@H](CO)Nc2ncc3n(c2=O)[C@H](C(=O)NCc2cc4cnccc4[nH]2)CC3)c1 [Compound 75, (S)-N-((1H-pyrrolo[3,2-c]pyridin-2-yl)methyl)-3-(((S)-1-(3,5-dimethylphenyl)-2-hydroxyethyl)amino)-4-oxo-4,6,7,8-tetrahydropyrrolo[1,2-a]pyrazine-6-carboxamide]	< 50	< 500	< 500
Cc1ccc(F)c(CNc2ncc3n(c2=O)[C@H](C(=O)NCc2cc4cnccc4[nH]2)CC3)c1 [Compound 78, (S)-N-((1H-pyrrolo[3,2-c]pyridin-2-yl)methyl)-3-((2-fluoro-5-methylbenzyl)amino)-4-oxo-4,6,7,8-tetrahydropyrrolo[1,2-a]pyrazine-6-carboxamide]	< 50	< 500	< 500
Cc1cc(C)cc(CNc2ncc3n(c2=O)[C@H](C(=O)NCc2ccnc(N)c2)CC3)c1 [Compound 88, (S)-N-((2-aminopyridin-4-yl)methyl)-3-((3,5-dimethylbenzyl)amino)-4-oxo-4,6,7,8-tetrahydropyrrolo[1,2-a]pyrazine-6-carboxamide]	50 to 500	< 500	< 500
O=C(NCc1cc2cnccc2[nH]1)[C@@H]1CCc2c(C3=CCOCC3)nc(NCc3ccccc3)c(=O)n21 [Compound 120, (S)—N-((1H-pyrrolo[3,2-c]pyridin-2-yl)methyl)-3-(benzylamino)-1-(3,6-dihydro-2H-pyran-4-yl)-4-oxo-4,6,7,8-tetrahydropyrrolo[1,2-a]pyrazine-6-carboxamide]	< 50	> 25000	< 500
Cc1nc(N)ccc1CNC(=O)[C@@H]1CCc2c(Cl)nc(NCc3ccccc3)c(=O)n21 [Compound 131, (S)-N-((6-amino-2-methylpyridin-3-yl)methyl)-3-(benzylamino)-1-chloro-4-oxo-4,6,7,8-tetrahydropyrrolo[1,2-a]pyrazine-6-carboxamide]	< 50	500 to 2500	< 500
Cc1nc(N)ccc1CNC(=O)[C@@H]1C[C@H](Cc2ccccc2)c2cnc(NC3CCC3)c(=O)n21 [Compound 140, (6S,8S)-N-((6-amino-2-methylpyridin-3-yl)methyl)-8-benzyl-3-(cyclobutylamino)-4-oxo-4,6,7,8-tetrahydropyrrolo[1,2-a]pyrazine-6-carboxamide]	< 50	< 500	< 500
CC[C@H]1C[C@@H](C(=O)NCc2cc3cnccc3[nH]2)n2c1cnc(NCc1cc(C)cc(C)c1)c2=O [Compound 155, (6S,8S)-N-((1H-pyrrolo[3,2-c]pyridin-2-yl)methyl)-3-((3,5-dimethylbenzyl)amino)-8-ethyl-4-oxo-4,6,7,8-tetrahydropyrrolo[1,2-a]pyrazine-6-carboxamide]	< 50	< 500	< 500
Cc1cc(F)cc(CNc2ncc3n(c2=O)[C@H](C(=O)NCc2ccc(CN)cc2)CC3)c1 [Compound 181, (S)—N-(4-(aminomethyl)benzyl)-3-((3-fluoro-5-methylbenzyl)amino)-4-oxo-4,6,7,8-tetrahydropyrrolo[1,2-a]pyrazine-6-carboxamide trifluoroacetate]	50 to 500	2500 to 10000	< 500
COc1cc(C)cc(CNc2ncc3n(c2=O)[C@H](C(=O)N[C@H](C)c2ccc(N)nc2)CC3)c1 [Compound 194, (S)-N-((R)-1-(6-aminopyridin-3-yl)ethyl)-3-((3-methoxy-5-methylbenzyl)amino)-4-oxo-4,6,7,8-tetrahydropyrrolo[1,2-a]pyrazine-6-carboxamide trifluoroacetate]	< 50	2500 to 10000	< 500
Cc1ccc(C(F)(F)F)cc1CNc1ncc2n(c1=O)[C@H](C(=O)N[C@H](C)c1ccc(N)nc1)CC2 [Compound 197, (S)-N-((R)-1-(6-aminopyridin-3-yl)ethyl)-3-((2-methyl-5-(trifluoromethyl)benzyl)amino)-4-oxo-4,6,7,8-tetrahydropyrrolo[1,2-a]pyrazine-6-carboxamide trifluoroacetate]	< 50	> 25000	< 500
Cc1cc(F)cc(CNc2ncc3n(c2=O)[C@H](C(=O)NCc2cnc(N)c(C)c2)CC3)c1 [Compound 213, (S)—N-((6-amino-5-methylpyridin-3-yl)methyl)-3-((3-fluoro-5-methylbenzyl)amino)-4-oxo-4,6,7,8-tetrahydropyrrolo[1,2-a]pyrazine-6-carboxamide trifluoroacetate]	50 to 500	< 500	< 500
Cc1nc(N)ccc1CNC(=O)[C@@H]1CCc2c(Cl)nc(NCc3cccc(-c4ccccc4)c3)c(=O)n21 [Compound 221, (S)-3-(([1,1′-biphenyl]-3-ylmethyl)amino)-N-((6-amino-2-methylpyridin-3-yl)methyl)-1-chloro-4-oxo-4,6,7,8-tetrahydropyrrolo[1,2-a]pyrazine-6-carboxamide trifluoroacetate]	< 50	2500 to 10000	< 500
[2H]C([2H])([2H])c1nc(N)ccc1CNC(=O)[C@@H]1CCc2cnc(NCc3cc(C)cc(OC)c3)c(=O)n21 [Compound 226, (S)—N-((6-amino-2-(methyl-d3)pyridin-3-yl)methyl)-3-((3-methoxy-5-methylbenzyl)amino)-4-oxo-4,6,7,8-tetrahydropyrrolo[1,2-a]pyrazine-6-carboxamide]	< 50	< 500	< 500
CC1(C)C[C@@H](C(=O)NCc2cc3cnccc3[nH]2)n2c1cnc(NCc1ccccc1)c2=O [Compound 228, trifluoroacetate]	< 50	2500 to 10000	< 500
C[C@@H]1C[C@@H](C(=O)NCc2cc3cnccc3[nH]2)n2c1c(Cl)nc(NCc1ccccc1)c2=O [Compound 230, (6S,8R)-N-((1H-pyrrolo[3,2-c]pyridin-2-yl)methyl)-3-(benzylamino)-1-chloro-8-methyl-4-oxo-4,6,7,8-tetrahydropyrrolo[1,2-a]pyrazine-6-carboxamide trifluoroacetate]	50 to 500	500 to 2500	< 500
O=C(NCc1cc2cnccc2[nH]1)[C@@H]1CCc2c(Cl)nc(NCc3cnccn3)c(=O)n21 [Compound 239]	50 to 500	> 25000	< 500
Cc1nc(N)ccc1CNC(=O)[C@@H]1CCc2c(Cl)nc(NCCc3cccnc3)c(=O)n21 [Compound 240]	50 to 500	< 500	< 500
O=C(NCc1cc2c(s1)CNC2)[C@@H]1CCc2cnc(N[C@H]3CCc4ccc(-c5ccccc5)cc43)c(=O)n21 [Compound 257]	< 50	< 500	< 500
